Test results as given in EP0745595A1, “3-(3-Aryloxyphenyl)-1-(substituted methyl)-s-triazine-2,4,6-oxo or thiotrione herbicidal agents” (American Cyanamid Company, priority 1995, dated 1996).

Tests used:
Type in all cases: in vivo
IPOMOEA SPP. = experiment: Preemergence herbicidal evaluation, IPOSS (Morningglory spp.); conditions: rated four to five weeks after treatment
Text: (§1) Results of herbicide evaluation are expressed on a rating scale (0-9). The scale is based upon a visual observation of plant stand, vigor, malformation, size, chlorosis and overall plant appearance as compared with a control.
(§2) The preemergence herbicidal activity of the test compounds of the present invention is exemplified by the following tests in which the seeds of a variety of monocotyledonous and dicotyledonous plants are separately mixed with potting soil and planted on top of approximately one inch of soil in separate pint cups. […] The treated cups are then placed on greenhouse benches, watered and cared for in accordance with conventional greenhouse procedures. From four to five weeks after treatment, the tests are terminated and each cup is examined and rated according to the rating system provided in Example 40.
(§3) The compounds evaluated are reported by compound number given in Example 40.

CYPERUS IRIA = experiment: Preemergence weed control under flooded paddy conditions, CYPIR (Rice Flatsedge); conditions: preemergence, 3-4 weeks after treatment
Procedure, shortened: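 Seeds or propagating organs of rice flatsedge were planted in the top 0.5 cm of silt loam soil in 32 oz. plastic containers, 10.5 cm across and without drainage holes. Water was kept 1.5 to 3 cm above the soil throughout. Treated containers were kept on greenhouse benches, and herbicidal effect was visually rated on a 0-9 scale against a control.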

[1] = tested on: SETARIA VIRIDIS, (L) BEAU; experiment: Preemergence herbicidal evaluation, SETVI (Foxtail, Green); conditions: rated four to five weeks after treatment
Text: as §1, §2, §3

SAGITTARIA PYGMAEA, L. = experiment: Preemergence weed control under flooded paddy conditions, SAGPY (Arrowhead (Pygmaea)); conditions: preemergence, 3-4 weeks after treatment
Procedure, shortened: (§4)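 Seeds or propagules were planted 0.5 cm deep in silt loam, with flood water held at 1.5 to 3 cm. Compound in 50/50 aqueous/acetone was pipetted into the flood water at about 0.5, 0.25, 0.125 and 0.063 kg/ha. Injury was rated visually on a 0-9 scale against a control 3-4 weeks after treatment.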

[2] = tested on: CYPERUS SEROTINUS, ROTTB.; experiment: Preemergence weed control under flooded paddy conditions, CYPSE (Flatsedge); conditions: preemergence, 3-4 weeks after treatment
Procedure, shortened: as §4

[3] = tested on: ABUTILON THEOPHRASTI, MEDIC.; experiment: Preemergence herbicidal evaluation, ABUTH (Velvetleaf); conditions: rated four to five weeks after treatment
Text: as §1, §2, §3

[4] = tested on: ORYZA SATIVA, L. TEBONNET; experiment: Rice tolerance to post-transplant applications under flooded paddy conditions, ORYSAT (Rice, Tebonnet); conditions: post-transplant rice, 3-4 weeks after treatment
Procedure, shortened: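 Two ten-day-old Tebonnet rice seedlings transplanted into silt loam, flooded 1.5–3 cm; three days later the water surface treated with compounds in acetone/water at about 0.5, 0.25, 0.125 and 0.063 kg/ha. Visual 0–9 injury rating versus control after 3–4 weeks in greenhouse.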

[5] = tested on: ECHINOCHLOA CRUS-GALLI, (L) BEAU; experiment: Preemergence herbicidal evaluation, ECHCG (Barnyardgrass); conditions: rated four to five weeks after treatment
Procedure, shortened: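 Barnyardgrass seeds were mixed with potting soil and planted on about one inch of soil in pint cups for preemergence testing. Treated cups were kept on greenhouse benches, watered and maintained by standard greenhouse practice. After four to five weeks, each cup was visually rated on a 0-9 scale against an untreated control.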

[6] = tested on: AMBROSIA ARTEMISIIFOLIA, L.; experiment: Preemergence herbicidal evaluation, AMBEL (Ragweed, Common); conditions: rated four to five weeks after treatment
Procedure, shortened: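 Seeds mixed with potting soil were planted on about one inch of soil in cups, then sprayed with aqueous acetone solution of test compound at about 0.125 to 0.50 kg per hectare. Plants grown under greenhouse conditions; visual rating on a 0-9 scale versus untreated control at 4-5 weeks.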

CASSIA OBTUSIFOLIA, L. = experiment: Preemergence herbicidal evaluation, CASOB (Sicklepod); conditions: rated four to five weeks after treatment
Procedure, shortened: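 Seeds of various monocot and dicot plants, including sicklepod, were each mixed with potting soil and sown on roughly one inch of soil in separate pint cups for preemergence testing. Treated cups were kept on greenhouse benches, watered and maintained conventionally. Four to five weeks after treatment, each cup was visually rated on a 0-9 scale against a control.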

COC(=O)Cn1c(=O)n(C)c(=O)n(-c2cc(Oc3c(Cl)cccc3Cl)ccc2[N+](=O)[O-])c1=O [Compound 37, Methyl 3-[5-(2,6-dichlorophenoxy)-2-nitrophenyl]tetrahydro-5-methyl-2,4,6-trioxo-s-triazine-1(2H)-acetate] gave an IPOSS herbicidal rating (IPOMOEA SPP.; Rate 0.125 kg/ha) of 0.0, an IPOSS herbicidal rating (IPOMOEA SPP.; Rate 0.250 kg/ha) of 0.0 and an IPOSS herbicidal rating (IPOMOEA SPP.; Rate 0.500 kg/ha) of 0.0. The “Herbicidal effect rating, CYPIR” value (CYPERUS IRIA; 0.063 kg/ha) was 0.0, the “Herbicidal effect rating, CYPIR” value (CYPERUS IRIA; 0.125 kg/ha) was 0.0 and the “Herbicidal effect rating, CYPIR” value (CYPERUS IRIA; 0.250 kg/ha) was 0.0. For the same compound, the “Herbicidal effect rating, CYPIR” value (CYPERUS IRIA; 0.500 kg/ha) was 0.0, the SETVI herbicidal rating ([1]; Rate 0.125 kg/ha) was 0.0 and the SETVI herbicidal rating ([1]; Rate 0.250 kg/ha) was 0.0. The SETVI herbicidal rating ([1]; Rate 0.500 kg/ha) was 0.0, the “Herbicidal effect rating, SAGPY” value (SAGITTARIA PYGMAEA, L.; 0.063 kg/ha) was 0.0 and the “Herbicidal effect rating, SAGPY” value (SAGITTARIA PYGMAEA, L.; 0.125 kg/ha) was 0.0. The “Herbicidal effect rating, SAGPY” value (SAGITTARIA PYGMAEA, L.; 0.250 kg/ha) was 0.0, the “Herbicidal effect rating, SAGPY” value (SAGITTARIA PYGMAEA, L.; 0.500 kg/ha) was 0.0 and the “Herbicidal effect rating, CYPSE” value ([2]; 0.063 kg/ha) was 0.0. The “Herbicidal effect rating, CYPSE” value ([2]; 0.125 kg/ha) was 0.0, the “Herbicidal effect rating, CYPSE” value ([2]; 0.250 kg/ha) was 0.0 and the “Herbicidal effect rating, CYPSE” value ([2]; 0.500 kg/ha) was 0.0. It also gave an ABUTH herbicidal rating ([3]; Rate 0.125 kg/ha) of 0.0, an ABUTH herbicidal rating ([3]; Rate 0.250 kg/ha) of 0.0 and an ABUTH herbicidal rating ([3]; Rate 0.500 kg/ha) of 0.0. The “Herbicidal effect rating, ORYSAT” value ([4]; 0.063 kg/ha) was 0.0, the “Herbicidal effect rating, ORYSAT” value ([4]; 0.125 kg/ha) was 1.0 and the “Herbicidal effect rating, ORYSAT” value ([4]; 0.250 kg/ha) was 1.0. The “Herbicidal effect rating, ORYSAT” value ([4]; 0.500 kg/ha) was 2.0, the ECHCG herbicidal rating ([5]; Rate 0.125 kg/ha) was 0.0 and the ECHCG herbicidal rating ([5]; Rate 0.250 kg/ha) was 0.0. The ECHCG herbicidal rating ([5]; Rate 0.500 kg/ha) was 0.0, the AMBEL herbicidal rating ([6]; Rate 0.125 kg/ha) was 0.0 and the AMBEL herbicidal rating ([6]; Rate 0.250 kg/ha) was 0.0. It also gave an AMBEL herbicidal rating ([6]; Rate 0.500 kg/ha) of 0.0, a CASOB herbicidal rating (CASSIA OBTUSIFOLIA, L.; Rate 0.125 kg/ha) of 0.0 and a CASOB herbicidal rating (CASSIA OBTUSIFOLIA, L.; Rate 0.250 kg/ha) of 0.0. It also gave a CASOB herbicidal rating (CASSIA OBTUSIFOLIA, L.; Rate 0.500 kg/ha) of 0.0.
